Laboratory results reported in the supplement of paper PMC4932681.

Columns and labels:
T-47D [1] = assay: drug sensitivity score (DSS) (DSS (dimensionless)); higher = more sensitive; extreme values may be limits of the assay; settings: 72 h
Procedure, shortened: (§1)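 Breast cancer cell lines and their resistant derivatives were seeded into 384-well plates holding FO2Baq library drugs at five concentrations spanning a 10 000-fold range. Resistant lines were in medium with 1 μM of the selecting drug. Cells were incubated 72 h at 37 °C, and CellTiter-Glo viability was read on a PHERAstar and normalised to vehicle-only and positive controls. Drug sensitivity score, relative IC50 (curve midpoint) and top-dose inhibition came from logistic dose–response fits (Breeze pipeline).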

T-47D Tam1 = assay: as above; settings: 4-OH-tamoxifen in medium 1 µM; 72 h
Procedure, shortened: as §1

ZR-75-1 [2] = assay: as above; settings: 72 h
Procedure, shortened: as §1

MCF-7 Tam1 [3] = assay: as above; settings: 4-OH-tamoxifen in medium 1 µM; 72 h
Procedure, shortened: as §1

ZR-75-1 Tam2 [4] = assay: as above; settings: 4-OH-tamoxifen in medium 1 µM; 72 h
Procedure, shortened: as §1

BT-474 Tam1 [5] = assay: as above; settings: 4-OH-tamoxifen in medium 1 µM; 72 h
Procedure, shortened: as §1

BT-474 Tam2 [6] = assay: as above; settings: 4-OH-tamoxifen in medium 1 µM; 72 h
Procedure, shortened: as §1

ZR-75-1 Tam1 [7] = assay: as above; settings: 4-OH-tamoxifen in medium 1 µM; 72 h
Procedure, shortened: as §1

T-47D Tam2 [8] = assay: as above; settings: 4-OH-tamoxifen in medium 1 µM; 72 h
Procedure, shortened: as §1

BT-474 [9] = assay: as above; settings: 72 h
Procedure, shortened: as §1

MCF-7 [10] = assay: as above; settings: 72 h
Procedure, shortened: as §1

T-47D [11] = assay: relative IC50 (midpoint of fitted logistic curve, plateau may be below 50% inhibition; CellTiter-Glo viability); higher = less potent; settings: 72 h
Procedure, shortened: as §1

ZR-75-1 [12] = assay: as above; settings: 72 h
Procedure, shortened: as §1

MCF-7 Tam1 [13] = assay: as above; settings: 4-OH-tamoxifen in medium 1 µM; 72 h
Procedure, shortened: as §1

ZR-75-1 Tam2 [14] = assay: as above; settings: 4-OH-tamoxifen in medium 1 µM; 72 h
Procedure, shortened: as §1

BT-474 Tam1 [15] = assay: as above; settings: 4-OH-tamoxifen in medium 1 µM; 72 h
Procedure, shortened: as §1

BT-474 Tam2 [16] = assay: as above; settings: 4-OH-tamoxifen in medium 1 µM; 72 h
Procedure, shortened: as §1

ZR-75-1 Tam1 [17] = assay: as above; settings: 4-OH-tamoxifen in medium 1 µM; 72 h
Procedure, shortened: as §1

T-47D Tam2 [18] = assay: as above; settings: 4-OH-tamoxifen in medium 1 µM; 72 h
Procedure, shortened: as §1

BT-474 [19] = assay: as above; settings: 72 h
Procedure, shortened: as §1

MCF-7 [20] = assay: as above; settings: 72 h
Procedure, shortened: as §1

relative IC50 (T-47D [11]; 4-OH-tamoxifen in medium 0 µM) [nM]	relative IC50 (MCF-7 Tam1 [13]) [nM]	relative IC50 (BT-474 Tam1 [15]) [nM]	relative IC50 (BT-474 Tam2 [16]) [nM]	relative IC50 (T-47D Tam2 [18]) [nM]	relative IC50 (BT-474 [19]; 4-OH-tamoxifen in medium 0 µM) [nM]	relative IC50 (BT-474 [19]; 4-OH-tamoxifen in medium 1 µM) [nM]	relative IC50 (MCF-7 [20]; 4-OH-tamoxifen in medium 0 µM) [nM]	relative IC50 (MCF-7 [20]; 4-OH-tamoxifen in medium 1 µM) [nM]	relative IC50 (T-47D [11]; 4-OH-tamoxifen in medium 1 µM) [nM]	SMILES	drug sensitivity score (T-47D [1]; 4-OH-tamoxifen in medium 0 µM)	drug sensitivity score (T-47D [1]; 4-OH-tamoxifen in medium 1 µM)	drug sensitivity score (T-47D Tam1)	drug sensitivity score (ZR-75-1 [2]; 4-OH-tamoxifen in medium 0 µM)	drug sensitivity score (ZR-75-1 [2]; 4-OH-tamoxifen in medium 1 µM)	drug sensitivity score (MCF-7 Tam1 [3])	drug sensitivity score (ZR-75-1 Tam2 [4])	drug sensitivity score (BT-474 Tam1 [5])	drug sensitivity score (BT-474 Tam2 [6])	drug sensitivity score (ZR-75-1 Tam1 [7])	drug sensitivity score (T-47D Tam2 [8])	drug sensitivity score (BT-474 [9]; 4-OH-tamoxifen in medium 0 µM)	drug sensitivity score (BT-474 [9]; 4-OH-tamoxifen in medium 1 µM)	drug sensitivity score (MCF-7 [10]; 4-OH-tamoxifen in medium 0 µM)	drug sensitivity score (MCF-7 [10]; 4-OH-tamoxifen in medium 1 µM)	relative IC50 (ZR-75-1 [12]; 4-OH-tamoxifen in medium 0 µM) [nM]	relative IC50 (ZR-75-1 [12]; 4-OH-tamoxifen in medium 1 µM) [nM]	relative IC50 (ZR-75-1 Tam2 [14]) [nM]	relative IC50 (ZR-75-1 Tam1 [17]) [nM]
> 10000	> 10000	> 10000	> 10000	> 10000	> 10000	> 10000	> 10000	> 10000		N#Cc1ccc(C(c2ccc(C#N)cc2)n2cncn2)cc1 [Letrozole]	0	11.1	2.88	0	0	0	0	0	0	0	0	0	0	0	0	> 10000	> 10000	> 10000	> 10000
1.76	> 1000	6.72		4.21	3.76	3.83	1.23		> 1000	CC(=O)O[C@@]12CO[C@@H]1C[C@H](O)[C@@]1(C)C(=O)[C@H](O)C3=C(C)[C@@H](OC(=O)[C@H](O)[C@@H](NC(=O)OC(C)(C)C)c4ccccc4)C[C@@](O)([C@@H](OC(=O)c4ccccc4)[C@H]21)C3(C)C [Docetaxel]	15.4	0	8.38	0.389	0	0	0	10	3.99	0	10.8	14	17.7	7.56	5.79		> 1000	> 1000	> 1000
> 1000	> 1000		> 1000	> 1000	> 1000	> 1000	> 1000	> 1000	> 1000	CCN1CCN(c2ccc(Nc3cc(N(C)C(=O)Nc4c(Cl)c(OC)cc(OC)c4Cl)ncn3)cc2)CC1 [NVP-BGJ398]	0	0	1.07	0	0	0	0	6.97	0	0	0	0	0	0	0	> 1000	> 1000	> 1000	> 1000
> 10000	> 10000	> 10000	> 10000	> 10000	> 10000	> 10000	> 10000	> 10000	> 10000	COc1cc(Nc2ncc(F)c(Nc3ccc4c(n3)NC(=O)C(C)(C)O4)n2)cc(OC)c1OC [Tamatinib (R406)]	0	0	0.592	0	0	0	0	0	0	0	0	0	0	0	0	> 10000	> 10000	> 10000	> 10000
5.91	> 1000	32.3		10.9	8.49	5.9		16.9		CC(=O)O[C@H]1C(=O)[C@@]2(C)[C@H]([C@H](OC(=O)c3ccccc3)[C@]3(O)C[C@H](OC(=O)[C@H](O)[C@@H](NC(=O)c4ccccc4)c4ccccc4)C(C)=C1C3(C)C)[C@]1(OC(C)=O)CO[C@@H]1C[C@@H]2O [Paclitaxel]	13	1.38	7.9	6.96	0	0	0	4.68	3.11	0	7.33	11.5	15.5	7.01	7.14		> 1000	> 1000	> 1000
> 1000	> 1000	> 1000	> 1000	> 1000	> 1000	> 1000		> 1000	> 1000	Cc1cc(Nc2nc(N[C@@H](C)c3ncc(F)cn3)ncc2Cl)[nH]n1 [AZD1480]	0	0	2.6	0	0	0	0	0	0	0	0	0	0	0.0046	0	> 1000	> 1000	> 1000	> 1000

SMILES	relative IC50 (T-47D [11]; 4-OH-tamoxifen in medium 0 µM) [nM]	relative IC50 (MCF-7 Tam1 [13]) [nM]	relative IC50 (BT-474 Tam1 [15]) [nM]	relative IC50 (BT-474 Tam2 [16]) [nM]	relative IC50 (T-47D Tam2 [18]) [nM]	relative IC50 (BT-474 [19]; 4-OH-tamoxifen in medium 0 µM) [nM]	relative IC50 (BT-474 [19]; 4-OH-tamoxifen in medium 1 µM) [nM]	relative IC50 (MCF-7 [20]; 4-OH-tamoxifen in medium 0 µM) [nM]	relative IC50 (MCF-7 [20]; 4-OH-tamoxifen in medium 1 µM) [nM]	relative IC50 (T-47D [11]; 4-OH-tamoxifen in medium 1 µM) [nM]	drug sensitivity score (T-47D [1]; 4-OH-tamoxifen in medium 0 µM)	drug sensitivity score (T-47D [1]; 4-OH-tamoxifen in medium 1 µM)	drug sensitivity score (T-47D Tam1)	drug sensitivity score (ZR-75-1 [2]; 4-OH-tamoxifen in medium 0 µM)	drug sensitivity score (ZR-75-1 [2]; 4-OH-tamoxifen in medium 1 µM)	drug sensitivity score (MCF-7 Tam1 [3])	drug sensitivity score (ZR-75-1 Tam2 [4])	drug sensitivity score (BT-474 Tam1 [5])	drug sensitivity score (BT-474 Tam2 [6])	drug sensitivity score (ZR-75-1 Tam1 [7])	drug sensitivity score (T-47D Tam2 [8])	drug sensitivity score (BT-474 [9]; 4-OH-tamoxifen in medium 0 µM)	drug sensitivity score (BT-474 [9]; 4-OH-tamoxifen in medium 1 µM)	drug sensitivity score (MCF-7 [10]; 4-OH-tamoxifen in medium 0 µM)	drug sensitivity score (MCF-7 [10]; 4-OH-tamoxifen in medium 1 µM)	relative IC50 (ZR-75-1 [12]; 4-OH-tamoxifen in medium 0 µM) [nM]	relative IC50 (ZR-75-1 [12]; 4-OH-tamoxifen in medium 1 µM) [nM]	relative IC50 (ZR-75-1 Tam2 [14]) [nM]	relative IC50 (ZR-75-1 Tam1 [17]) [nM]
C/C(=C\c1csc(C)n1)[C@@H]1C[C@@H]2O[C@]2(C)CCC[C@H](C)[C@H](O)[C@@H](C)C(=O)C(C)(C)[C@@H](O)CC(=O)O1 [Patupilone  (Epothilone B)]	9.51	> 1000	11.8	29.7	14.7	20.1	5.98			242	8.94	1.35	4.63	4.4	0	0	0	8.19	5.53	0	6.29	9.82	14.9	7.85	4.38		> 1000	> 1000	> 1000
